These results are taken from article PMC9568670, “A dominant negative mitofusin causes mitochondrial perinuclear clusters because of aberrant tethering” (Life Science Alliance, 2022).

Residue numbers refer to the chain shown, from its start. Where a name gives a salt, the structure may show the parent alone.

What all share (assay type): biochemical
In assay [1] the target is T1, Mfn1IM (mini-mitofusin Mfn1) (Homo sapiens, UniProt Q8IWA4, DEL366-695).
T1 construct: pET28, E. coli Rosetta(DE3); N-terminal His6 cut off with PreScission; ~50 kD; monomer with GDP, dimer with GDP-BeF3-
T1 sequence (Q8IWA4 1-365): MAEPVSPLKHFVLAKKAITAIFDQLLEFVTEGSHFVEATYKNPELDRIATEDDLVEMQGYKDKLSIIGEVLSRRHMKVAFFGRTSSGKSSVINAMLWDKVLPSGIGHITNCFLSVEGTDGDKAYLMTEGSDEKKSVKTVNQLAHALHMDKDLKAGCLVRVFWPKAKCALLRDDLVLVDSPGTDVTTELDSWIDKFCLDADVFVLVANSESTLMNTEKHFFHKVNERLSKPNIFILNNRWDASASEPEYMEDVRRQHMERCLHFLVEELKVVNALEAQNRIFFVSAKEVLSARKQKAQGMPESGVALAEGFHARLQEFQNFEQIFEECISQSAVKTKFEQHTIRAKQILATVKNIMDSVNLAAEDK
T1 sequence (Q8IWA4 696-741): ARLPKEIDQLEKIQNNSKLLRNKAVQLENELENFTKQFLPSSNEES
The assay can be described thus: malachite green phosphate release, allosteric sigmoidal fit. The note with it: 2.5 uM protein; pH 7.4, 50 mM KCl, 5 mM MgCl2, 1 mM DTT, 37 C, 15 min.

The target in assay [2] is T2, Mfn1IM (mini-mitofusin Mfn1) (Homo sapiens, UniProt Q8IWA4, S329P/DEL366-695).
T2 construct: pET28, E. coli Rosetta(DE3); N-terminal His6 cut off with PreScission; ~50 kD; monomer with GDP, dimer with GDP-BeF3-
T2 sequence (Q8IWA4 1-365 S329P): T1 sequence (Q8IWA4 1-365) with S329P
T2 sequence (Q8IWA4 696-741): T1 sequence (Q8IWA4 696-741)
The description is as above. The note with it: 2.5 uM protein; pH 7.4, 50 mM KCl, 5 mM MgCl2, 1 mM DTT, 37 C, 15 min.

The target in assay [3] is T3, Mfn1^WT-FLAG (full-length) (Mus musculus, UniProt Q811U4).
T3 construct: full-length Mfn1 with FLAG tag, TET-induced in Flp-In TREx HEK293 cells; isolated mitochondria; ~200 kD species consistent with cis dimer
T3 sequence (Q811U4 1-741): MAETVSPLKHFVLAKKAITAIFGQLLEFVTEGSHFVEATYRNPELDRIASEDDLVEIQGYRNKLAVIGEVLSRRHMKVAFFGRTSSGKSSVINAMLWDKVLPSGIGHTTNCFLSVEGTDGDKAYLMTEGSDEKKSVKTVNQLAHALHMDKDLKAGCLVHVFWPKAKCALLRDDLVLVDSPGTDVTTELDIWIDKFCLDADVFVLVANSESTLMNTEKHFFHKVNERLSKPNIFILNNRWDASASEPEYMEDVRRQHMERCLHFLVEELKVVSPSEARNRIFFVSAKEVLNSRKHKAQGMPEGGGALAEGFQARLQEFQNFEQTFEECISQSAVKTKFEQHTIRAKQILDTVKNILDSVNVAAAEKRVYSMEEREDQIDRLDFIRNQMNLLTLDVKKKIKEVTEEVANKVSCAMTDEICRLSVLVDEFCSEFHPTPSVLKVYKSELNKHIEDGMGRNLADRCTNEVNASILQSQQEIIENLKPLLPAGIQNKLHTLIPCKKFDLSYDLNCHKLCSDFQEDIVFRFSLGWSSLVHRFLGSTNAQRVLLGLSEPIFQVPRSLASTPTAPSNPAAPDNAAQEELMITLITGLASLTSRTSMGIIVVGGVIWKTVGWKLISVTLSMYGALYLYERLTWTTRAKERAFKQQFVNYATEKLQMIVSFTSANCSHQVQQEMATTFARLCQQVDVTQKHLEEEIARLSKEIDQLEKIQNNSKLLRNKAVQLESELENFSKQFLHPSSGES
The assay is described as follows: blue native PAGE of isolated mitochondria, nucleotide-dependent oligomerization. The note with it: 2 mM GMP-PNP, 37 C, 30 min; non-hydrolyzable GTP analog; indirect read-out by oligomer shift.

Take `Nc1nc2c(ncn2[C@@H]2O[C@H](COP(=O)(O)OP(=O)(O)OP(=O)(O)O)[C@@H](O)[C@H]2O)c(=O)[nH]1` [GTP]: the Khalf result in assay [1] is “kinetics of GTP hydrolysis was similar between Mfn1IM^WT and Mfn1IM^S329P”; in assay [2], “kinetics of GTP hydrolysis was similar between Mfn1IM^WT and Mfn1IM^S329P”.
As to `Nc1nc2c(ncn2[C@@H]2O[C@H](COP(=O)(O)OP(=O)(O)NP(=O)(O)O)[C@@H](O)[C@H]2O)c(=O)[nH]1` [GMP-PNP, guanosine 5′-β,γ-imidotriphosphate trisodium salt hydrate], in assay [3], the “blue native PAGE of isolated mitochondria, nucleotide-dependent oligomerization” value is listed as “GMP-PNP, which shifts mitofusin from the dimer into two larger species”.
